Laboratory results published in the supplement of paper PMC11208160.

Experiment: recombinant UMI read abundance after kanamycin selection (control-corrected) (log10(CPM+1)); higher = more efficient recombination; extreme values may be limits of the assay; sequences stand for … in AGTGCAGAGAAAATCGGCCAGTTTTCTCTGCCTGCAGTCCGCATGCCGTGGGACCCCTTGGGTTCTAACCTGTTGCCTAGATTTATGCAGCGGACTGCCTTTCTCCCAAAGTGATAAACCGG…AGGTTGGTTTCACT; site = the 11-nt donor
How it was run: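 Under IPTG (0.07 mM) plus kanamycin, or without selection, Escherichia coli carrying a UMI-tagged donor and donor-binding-loop pair library and a target plasmid for the IS621 bridge recombinase were plated in two replicates. Recombinant UMIs were PCR-amplified across the donor–target junction and sequenced. Counts were converted to CPM, averaged over replicates, scaled by control-derived factors and reported as log10(CPM+1).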
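Also: IS621 bridge recombinase in Escherichia coli cells against a fixed T5 target plasmid.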

| Sequence | recombinant UMI read abundance (log10) |
| --- | --- |
| GGATGATCATGGACCGGTTTTCCCGGTAATCCGTATTTGCT (site GGATGATCTAG) | 2.36 |
| GGATTATCATGGACCGGTTTTCCCGGTAATCCGTATTTGAT (site GGATTATCTAT) | 1.82 |
| GGATTGACATGGACCGGTTTTCCCGGTAATCCGTATTTGCC (site GGATAGACTGG) | 1.42 |
| GGATTGACATGGACCGGTTTTCCCGGTAATCCGTATTTGCC (site GGATCGACTGG) | 1.06 |
| GGATTGACATGGACCGGTTTTCCCGGTAATCCGTATTTGCC (site GGATGGACTGG) | 0 |
| GGATTGACATGGACCGGTTTTCCCGGTAATCCGTATTTGCC (site GGATTGACTGG) | 1.98 |
| GGCAAACCATGGACCGGTTTTCCCGGTAATCCGTATTTGAA (site GGCAAACCTTT) | 0 |
| GGCAAACCATGGACCGGTTTTCCCGGTAATCCGTATTTGAA (site GGCAACCCTTT) | 0 |
| GGCAAACCATGGACCGGTTTTCCCGGTAATCCGTATTTGAA (site GGCAAGCCTTT) | 0.00636 |
| GGCAAACCATGGACCGGTTTTCCCGGTAATCCGTATTTGAA (site GGCAATCCTTT) | 0 |
| GGCAACCCATGGACCGGTTTTCCCGGTAATCCGTATTTGGA (site GGCAACCCTTC) | 0.0138 |
| GGCAATCCATGGACCGGTTTTCCCGGTAATCCGTATTTGAC (site GGCAATCCTAT) | 0.00921 |
| GGCAATCCATGGACCGGTTTTCCCGGTAATCCGTATTTGAC (site GGCAATCCTCT) | 0.00258 |
| GGCAATCCATGGACCGGTTTTCCCGGTAATCCGTATTTGAC (site GGCAATCCTGT) | 0.665 |
| GGCAATCCATGGACCGGTTTTCCCGGTAATCCGTATTTGAC (site GGCAATCCTTT) | 0 |
| GGCAATCCATGGACCGGTTTTCCCGGTAATCCGTATTTGTA (site GGCAATCCTTA) | 0.264 |
| GGCAATCCATGGACCGGTTTTCCCGGTAATCCGTATTTGTA (site GGCAATCCTTC) | 0.00948 |
| GGCAATCCATGGACCGGTTTTCCCGGTAATCCGTATTTGTA (site GGCAATCCTTG) | 0 |
| GGCAATCCATGGACCGGTTTTCCCGGTAATCCGTATTTGTA (site GGCAATCCTTT) | 0 |
| GGCACAGCATGGACCGGTTTTCCCGGTAATCCGTATTTGAA (site GGCACAGCTTT) | 1.87 |
| GGCAGAGCATGGACCGGTTTTCCCGGTAATCCGTATTTGCC (site GGCAGAGCTGG) | 0 |
| GGCCAACCATGGACCGGTTTTCCCGGTAATCCGTATTTGTT (site GGCCAACCTAA) | 0.00804 |
| GGCCAACCATGGACCGGTTTTCCCGGTAATCCGTATTTGTT (site GGCCACCCTAA) | 0.0125 |
| GGCCAACCATGGACCGGTTTTCCCGGTAATCCGTATTTGTT (site GGCCAGCCTAA) | 0.0207 |
| GGCCAACCATGGACCGGTTTTCCCGGTAATCCGTATTTGTT (site GGCCATCCTAA) | 0.00632 |

| Sequence | recombinant UMI read abundance (log10) |
| --- | --- |
| GGCCACCCATGGACCGGTTTTCCCGGTAATCCGTATTTGCG (site GGCCACCCTCG) | 0.00687 |
| GGCCACCCATGGACCGGTTTTCCCGGTAATCCGTATTTGCT (site GGCCACCCTAA) | 0.0723 |
| GGCCACCCATGGACCGGTTTTCCCGGTAATCCGTATTTGCT (site GGCCACCCTAC) | 0.0158 |
| GGCCACCCATGGACCGGTTTTCCCGGTAATCCGTATTTGCT (site GGCCACCCTAG) | 0 |
| GGCCACCCATGGACCGGTTTTCCCGGTAATCCGTATTTGCT (site GGCCACCCTAT) | 0.00294 |
| GGCCACCCATGGACCGGTTTTCCCGGTAATCCGTATTTGGT (site GGCCACCCTAA) | 0.113 |
| GGCCACCCATGGACCGGTTTTCCCGGTAATCCGTATTTGGT (site GGCCACCCTAC) | 0.00471 |
| GGCCACCCATGGACCGGTTTTCCCGGTAATCCGTATTTGGT (site GGCCACCCTAG) | 0 |
| GGCCACCCATGGACCGGTTTTCCCGGTAATCCGTATTTGGT (site GGCCACCCTAT) | 0.0141 |
| GGCCAGTCATGGACCGGTTTTCCCGGTAATCCGTATTTGCA (site GGCCAGTCTTG) | 2.73 |
| GGCCATCCATGGACCGGTTTTCCCGGTAATCCGTATTTGGC (site GGCCATCCTGC) | 0 |
| GGCCATCCATGGACCGGTTTTCCCGGTAATCCGTATTTGTT (site GGCCAACCTAA) | 0 |
| GGCCATCCATGGACCGGTTTTCCCGGTAATCCGTATTTGTT (site GGCCACCCTAA) | 0.0125 |
| GGCCATCCATGGACCGGTTTTCCCGGTAATCCGTATTTGTT (site GGCCAGCCTAA) | 0.00245 |
| GGCCATCCATGGACCGGTTTTCCCGGTAATCCGTATTTGTT (site GGCCATCCTAA) | 0.0172 |
| GGCCCGCCATGGACCGGTTTTCCCGGTAATCCGTATTTGCC (site GGCCCGCCTGG) | 0 |
| GGCCCTACATGGACCGGTTTTCCCGGTAATCCGTATTTGTG (site GGCCCTACTCA) | 0.33 |
| GGCCGCACATGGACCGGTTTTCCCGGTAATCCGTATTTGCA (site GGCCGCACTTG) | 1.77 |
| GGCCGCCCATGGACCGGTTTTCCCGGTAATCCGTATTTGTT (site GGCCACCCTAA) | 0.0225 |
| GGCCGCCCATGGACCGGTTTTCCCGGTAATCCGTATTTGTT (site GGCCCCCCTAA) | 0.00441 |
| GGCCGCCCATGGACCGGTTTTCCCGGTAATCCGTATTTGTT (site GGCCGCCCTAA) | 0.00876 |
| GGCCGCCCATGGACCGGTTTTCCCGGTAATCCGTATTTGTT (site GGCCTCCCTAA) | 0.0158 |
| GGCCGTACATGGACCGGTTTTCCCGGTAATCCGTATTTGCT (site AGCCGTACTAG) | 0.00424 |
| GGCCGTACATGGACCGGTTTTCCCGGTAATCCGTATTTGCT (site CGCCGTACTAG) | 0.413 |
| GGCCGTACATGGACCGGTTTTCCCGGTAATCCGTATTTGCT (site GGCCGTACTAG) | 1.83 |

| Sequence | recombinant UMI read abundance (log10) |
| --- | --- |
| GGCCGTACATGGACCGGTTTTCCCGGTAATCCGTATTTGCT (site TGCCGTACTAG) | 0.302 |
| GGCCTTTCATGGACCGGTTTTCCCGGTAATCCGTATTTGAC (site AGCCTTTCTGT) | 0 |
| GGCCTTTCATGGACCGGTTTTCCCGGTAATCCGTATTTGAC (site CGCCTTTCTGT) | 0 |
| GGCCTTTCATGGACCGGTTTTCCCGGTAATCCGTATTTGAC (site GGCCTTTCTGT) | 0 |
| GGCCTTTCATGGACCGGTTTTCCCGGTAATCCGTATTTGAC (site TGCCTTTCTGT) | 0 |
| GGCCTTTCATGGACCGGTTTTCCCGGTAATCCGTATTTGTC (site GGCCTTTCTGA) | 1.46 |
| GGCGATCCATGGACCGGTTTTCCCGGTAATCCGTATTTGAA (site GGCAATCCTTT) | 0.0192 |
| GGCGATCCATGGACCGGTTTTCCCGGTAATCCGTATTTGAA (site GGCCATCCTTT) | 0.0198 |
| GGCGATCCATGGACCGGTTTTCCCGGTAATCCGTATTTGAA (site GGCGATCCTTT) | 0.785 |
| GGCGATCCATGGACCGGTTTTCCCGGTAATCCGTATTTGAA (site GGCTATCCTTT) | 0.141 |
| GGCGCCTCATGGACCGGTTTTCCCGGTAATCCGTATTTGGG (site GGCGCCTCTCC) | 0.0423 |
| GGCGGGGCATGGACCGGTTTTCCCGGTAATCCGTATTTGTA (site GGCGGGGCTTA) | 1.53 |
| GGCGTAGCATGGACCGGTTTTCCCGGTAATCCGTATTTGTG (site GGCGTAGCTCA) | 0.747 |
| GGCTAGGCATGGACCGGTTTTCCCGGTAATCCGTATTTGGT (site AGCTAGGCTAC) | 0.208 |
| GGCTAGGCATGGACCGGTTTTCCCGGTAATCCGTATTTGGT (site CGCTAGGCTAC) | 0.399 |
| GGCTAGGCATGGACCGGTTTTCCCGGTAATCCGTATTTGGT (site GGCTAGGCTAC) | 0.271 |
| GGCTAGGCATGGACCGGTTTTCCCGGTAATCCGTATTTGGT (site TGCTAGGCTAC) | 0.0118 |
| GGCTCAGCATGGACCGGTTTTCCCGGTAATCCGTATTTGGG (site AGCTCAGCTCC) | 0.00802 |
| GGCTCAGCATGGACCGGTTTTCCCGGTAATCCGTATTTGGG (site CGCTCAGCTCC) | 0.0293 |
| GGCTCAGCATGGACCGGTTTTCCCGGTAATCCGTATTTGGG (site GGCTCAGCTCC) | 0.02 |
| GGCTCAGCATGGACCGGTTTTCCCGGTAATCCGTATTTGGG (site TGCTCAGCTCC) | 0.00932 |
| GGCTGACCATGGACCGGTTTTCCCGGTAATCCGTATTTGAA (site GGCTGACCTTT) | 0.00353 |
| GGCTTAACATGGACCGGTTTTCCCGGTAATCCGTATTTGTC (site GGCTTAACTGA) | 0.732 |
| GGGAAGACATGGACCGGTTTTCCCGGTAATCCGTATTTGGC (site GGGAAGACTGC) | 1.57 |
| GGGACCTCATGGACCGGTTTTCCCGGTAATCCGTATTTGGT (site GGGACCTCTAC) | 2 |
